Results published in ChEMBL document CHEMBL5338818, “Discovery of the First Potent, Selective, and In Vivo Efficacious Polo-like Kinase 4 Proteolysis Targeting Chimera Degrader for the Treatment of TRIM37-Amplified Breast Cancer” (J Med Chem, 2023).
Active and inactive are the calls of the source. No cut-off for these calls is given here.

Columns and labels:
[1] = Stability in human plasma assessed as compound remaining at 100 uM after 60 mins by LC-MS/MS analysis (reference value: 100%); format: ADME, cell-free; settings: read-out: Stability
[2] = Metabolic stability in rat liver microsomes assessed as intrinsic clearance at 100 uM incubated for 60 mins in presence of NADPH by LC-MS/MS analysis; format: ADME, Microsome; settings: read-out: CLH
[3] = Cmax in ICR mouse at 20 mg/kg, ip measured upto 24 hrs by LC-M/MS analysis; format: ADME, organism-based; parameters: dose 20 mg/kg, time < 24 hrs, route ip; settings: in vivo
[4] = Observed volume of distribution at steady state in ICR mouse at 2 mg/kg, iv measured upto 24 hrs by LC-M/MS analysis; format: ADME, organism-based; settings: in vivo, read-out: Vdss
[5] = Observed clearance in ICR mouse at 2 mg/kg, iv measured upto 24 hrs by LC-M/MS analysis; format: ADME, organism-based; settings: in vivo
[6] = Metabolic stability in human liver microsomes assessed as intrinsic clearance at 100 uM incubated for 60 mins in presence of NADPH by LC-MS/MS analysis; format: ADME, Microsome; settings: read-out: CLH
[7] = Tmax in ICR mouse at 20 mg/kg, ip measured upto 24 hrs by LC-M/MS analysis; format: ADME, organism-based; settings: in vivo
[8] = target: Protein cereblon/Serine/threonine-protein kinase PLK4 (Homo sapiens, UniProt O00444+Q96SW2); assay: Protac activity at CRBN/PLK4 in human MCF7 cells at 1 uM in presence of MG132 by Western blot analysis; format: cell-based
Chain of Protein cereblon/Serine/threonine-protein kinase PLK4 (O00444 whole entry, looked up): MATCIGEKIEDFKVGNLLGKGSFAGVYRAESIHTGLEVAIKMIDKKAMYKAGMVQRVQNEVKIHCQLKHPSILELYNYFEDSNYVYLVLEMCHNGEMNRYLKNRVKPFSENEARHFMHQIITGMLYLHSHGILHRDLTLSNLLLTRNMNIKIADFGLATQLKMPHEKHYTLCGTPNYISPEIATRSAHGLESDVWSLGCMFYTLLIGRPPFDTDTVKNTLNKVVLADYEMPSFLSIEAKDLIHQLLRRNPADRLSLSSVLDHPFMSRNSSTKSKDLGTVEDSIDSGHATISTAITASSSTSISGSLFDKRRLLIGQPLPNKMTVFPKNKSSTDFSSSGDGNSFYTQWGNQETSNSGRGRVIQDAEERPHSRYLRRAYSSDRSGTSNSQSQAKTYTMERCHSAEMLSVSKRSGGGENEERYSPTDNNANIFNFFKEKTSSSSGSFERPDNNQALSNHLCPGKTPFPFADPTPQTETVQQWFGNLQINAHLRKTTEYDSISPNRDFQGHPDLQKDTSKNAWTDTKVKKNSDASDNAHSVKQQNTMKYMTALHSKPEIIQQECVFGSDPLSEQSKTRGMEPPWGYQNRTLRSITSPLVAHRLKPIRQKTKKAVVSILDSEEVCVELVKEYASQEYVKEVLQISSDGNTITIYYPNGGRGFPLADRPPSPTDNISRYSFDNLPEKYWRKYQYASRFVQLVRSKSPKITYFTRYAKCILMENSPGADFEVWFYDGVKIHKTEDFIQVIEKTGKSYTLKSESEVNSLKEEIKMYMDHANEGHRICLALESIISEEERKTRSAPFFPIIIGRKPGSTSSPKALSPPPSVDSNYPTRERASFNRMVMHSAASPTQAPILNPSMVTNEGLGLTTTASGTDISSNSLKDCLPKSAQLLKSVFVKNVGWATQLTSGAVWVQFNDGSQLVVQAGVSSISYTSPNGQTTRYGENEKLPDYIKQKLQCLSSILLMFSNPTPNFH
Chain of Protein cereblon/Serine/threonine-protein kinase PLK4 (Q96SW2 whole entry, looked up): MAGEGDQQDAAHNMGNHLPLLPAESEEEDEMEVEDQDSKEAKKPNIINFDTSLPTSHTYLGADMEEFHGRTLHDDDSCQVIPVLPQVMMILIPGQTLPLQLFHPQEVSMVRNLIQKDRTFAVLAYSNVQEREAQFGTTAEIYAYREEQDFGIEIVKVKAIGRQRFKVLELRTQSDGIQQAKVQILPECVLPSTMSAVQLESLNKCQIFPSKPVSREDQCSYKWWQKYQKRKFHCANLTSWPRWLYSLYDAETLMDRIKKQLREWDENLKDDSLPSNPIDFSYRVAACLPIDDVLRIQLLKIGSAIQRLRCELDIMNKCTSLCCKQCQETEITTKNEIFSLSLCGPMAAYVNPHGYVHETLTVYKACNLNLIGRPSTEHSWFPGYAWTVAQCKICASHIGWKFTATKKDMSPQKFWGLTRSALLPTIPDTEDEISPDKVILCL

[9] = target: CYP3A4 (Homo sapiens, UniProt P08684); assay: Inhibition of CYP3A4 in human liver microsomes at 10 uM using ketoconazole as substrate preincubated for 10 mins followed by NADPH regenerating system addition and measured after 15 mins by LC-MS/MS analysis relative to control; format: ADME, Microsome; settings: time 25 min
Chain of CYP3A4 (P08684 whole entry): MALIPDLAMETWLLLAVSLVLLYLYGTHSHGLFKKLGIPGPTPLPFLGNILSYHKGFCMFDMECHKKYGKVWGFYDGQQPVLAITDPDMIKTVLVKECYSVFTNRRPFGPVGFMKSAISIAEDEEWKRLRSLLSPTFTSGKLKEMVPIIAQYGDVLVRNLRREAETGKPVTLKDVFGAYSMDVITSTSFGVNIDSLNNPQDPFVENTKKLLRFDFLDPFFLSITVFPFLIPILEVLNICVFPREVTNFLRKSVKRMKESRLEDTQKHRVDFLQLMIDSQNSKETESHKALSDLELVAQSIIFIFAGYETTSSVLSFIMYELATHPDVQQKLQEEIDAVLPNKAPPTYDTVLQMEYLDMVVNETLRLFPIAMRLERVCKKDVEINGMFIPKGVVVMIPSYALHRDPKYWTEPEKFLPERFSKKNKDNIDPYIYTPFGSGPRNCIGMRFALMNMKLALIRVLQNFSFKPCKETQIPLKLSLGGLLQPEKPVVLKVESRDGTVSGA

[10] = Metabolic stability in human liver microsomes assessed as half life at 100 uM incubated for 60 mins in presence of NADPH by LC-MS/MS analysis; format: ADME, Microsome
[11] = system: MCF7; assay: Antitumor activity against human MCF7 cells xenografted in nu/nu mouse assessed as reduction in Ki-67 at 20 mg/kg,ip administered once every other day for 21 days by immunohistochemical analysis; format: functional, organism-based; settings: time 21.0 day
[12] = Apparent permeability across apical to basolateral side in human Caco-2 cells at 2 uM incubated for 2 hrs by LC-MS/MS analysis; format: ADME, cell-based
[13] = target: CYP2C9 (Homo sapiens, UniProt P11712); assay: Inhibition of CYP2C9 in human liver microsomes at 10 uM using sulfaphenazole as substrate preincubated for 10 mins followed by NADPH regenerating system addition and measured after 15 mins by LC-MS/MS analysis relative to control; format: ADME, Microsome; settings: time 25 min
Chain of CYP2C9 (P11712 whole entry): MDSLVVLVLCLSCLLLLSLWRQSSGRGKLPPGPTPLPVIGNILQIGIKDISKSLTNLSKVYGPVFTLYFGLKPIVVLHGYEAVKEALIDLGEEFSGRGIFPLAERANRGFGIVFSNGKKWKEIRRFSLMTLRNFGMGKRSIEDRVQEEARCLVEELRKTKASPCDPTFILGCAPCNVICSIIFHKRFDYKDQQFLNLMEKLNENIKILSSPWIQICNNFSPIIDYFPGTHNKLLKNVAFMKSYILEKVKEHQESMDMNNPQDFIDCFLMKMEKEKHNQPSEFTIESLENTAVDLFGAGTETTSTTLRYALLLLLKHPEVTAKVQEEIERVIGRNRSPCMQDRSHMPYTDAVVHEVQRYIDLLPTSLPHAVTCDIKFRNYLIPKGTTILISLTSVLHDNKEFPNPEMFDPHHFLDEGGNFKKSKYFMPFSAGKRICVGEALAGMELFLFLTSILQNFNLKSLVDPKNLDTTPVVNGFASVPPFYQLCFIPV

[14] = Observed mean […] time infinity in ICR mouse at 2 mg/kg, iv measured upto 24 hrs by LC-M/MS analysis; format: ADME, organism-based; settings: in vivo

- remaining at 1 h, 100 µM [1]: 83.6%
- microsomal CLint at 100 µM [2]: 20.9 µL/min/mg
- Cmax [3]: 4570 ng/mL
- Vd [4]: 16.3 L/kg
- clearance [5]: 34.9 mL/min/kg
- microsomal CLint at 100 µM [6]: 21.7 µL/min/mg
- Tmax [7]: 1.42 h
- Activity [8]: Active
- inhibition at 0.25 h, 10 µM [9]: 20.4%
- half-life at 100 µM [10]: 1.06 h
- Papp A→B at 2 h, 2 µM [12]: 0.48 ×10⁻⁶ cm/s
- inhibition at 0.25 h, 10 µM [13]: 32.5%
- Time [14]: 2.29 h
Compound: Cc1cc(Nc2nc(NCc3ccc(F)cc3F)nc3c2cnn3C2CCN(C(=O)C3CCN(c4ccc5c(c4)C(=O)N(C4CCC(=O)NC4=O)C5=O)CC3)CC2)n[nH]1 (centres undefined)
- inhibition [11]: Active
